Measurements reported in patent US20160264593A1 (priority 2013, published 2016).
Where two headings read alike, the source gives them in different places.

Test: Pharmacokinetic study of 157 (and metabolite endothal) in SD rats, iv and po; plasma, liver, brain
Assay type: in vivo
Conditions: for AUC(0-inf) / AUC / Cmax / MRT last / half-life / concentration at 0.25 h / concentration at 1 h: 1.5 mg/kg; for AUC: read-out: AUC; for MRT last: read-out: MRT (0-t)
Procedure: The blood, liver and brain tissue samples were collected at predetermined times from rats. […] Compound were diluted shortly before use in 4% sodium bicarbonate for sterile injection (this is the standard pediatric solution of NaHCO3 with a pH of about 8.5).
Compound 153 was freshly prepared by diluting the drugs shortly before use in 4% sodium bicarbonate for sterile injection (this is the standard pediatric solution of NaHCO3 with a pH of about 8.5). The final concentrations of 153 solutions were 0.25 mg/mL. The 153 solutions were administered via iv or po route at dose volume of 5 ml/kg according to the latest body weight. Compound 157 was freshly prepared by diluting the drugs shortly before use in 4% sodium bicarbonate for sterile injection (this is the standard pediatric solution of NaHCO3 with a pH of about 8.5). The final concentrations of […] solutions were 0.3 mg/mL. The 157 solutions were administered via iv or po route at dose volume of 5 ml/kg according to the latest body weight.
Twelve (12) female SD rats per group were dosed by iv with 153 or 157. The rats were fasted overnight prior to dosing, with free access to water. Foods were withheld for 2 hours post-dose. Blood, liver and brain tissue samples in two animals each group were collected at each time point, within 10% of the scheduled time for each time point. Two extra animals were used for analytic method development.
Blood (>0.3 mL) were collected via aorta abdominalis in anaesthetic animals into tubes containing heparin at 15 min, 1, 2, 6, 10 and 24 hours after iv administration. Liver and brain tissues were collected immediately after animal death. The liver and brain tissues were excised and rinsed with cold saline to avoid blood residual. Upon collection, each sample was placed on ice and the blood samples were subsequently centrifuged (4° C., 11000 rpm, 5 min) to separate plasma. The obtained plasma, liver and brain tissue samples were stored at −70° C. until LC-MS/MS analysis.
Two (2) female SD rats per group were dosed by po with 153 or 157. The rats were fasted overnight prior to dosing, with free access to water. Foods were withheld for 2 hours post-dose. Blood samples (>0.3 mL) were collected via aorta abdominalis in anaesthetic animals into tubes containing heparin at 30 min, 1, 2, 6, 10 and 24 hours after po administration.
To each sample, 30 μL IS-D (for blank samples, 20 μL acetonitrile:water (1:1) was added) and 300 μl acetonitrile was added. The sample mixture was vortexed for approximately 3 min. After centrifugation at 10000 rpm for 5 min at 4° C., 100 μL of the upper layer was transferred to a new tube and added 200 μL 0.4% formic acid in water (pH6.0). The mixture was vortexed for approximately 3 min before injected onto the LC/MS/MS system for analysis.
On the day of the assay, the frozen liver and brain samples were thawed unassisted at room temperature. An about 200 mg weighed sample of each thawed tissue was placed into a plastic tube with water (0.6 mL) to facilitate homogenization. Tissue processing was conducted using a homogenizer for approximately 1 min, 100 μl homogenate was transferred into a fresh Eppendorf tube. To each tube, 50 μL IS-D was added and mixed. Then 500 μl acetonitrile was added and the sample mixture was vortexed for approximately 3 min. After centrifugation at 10000 rpm for 5 min at 4° C., 100 μL of the upper layer was transferred to a new tube and evaporate the supernatant to dryness at 35° C. Reconstitute the residue with 200 μL of 0.4% formic acid in water (pH 6.0), and vortex for 3 min, submit for LC-MS/MS analysis.
Frozen unknown plasma samples were completely thawed at room temperature and vortexed thoroughly. With a pipette, 50 μL of plasma was transferred into a 2.0 mL Eppendorf tube. 50 μL of 0.1N HCl and 800 μL ethyl acetate were added into each sample. The sample mixture was vortexed for approximately 3 min.

[1] = female, SD (Sprague-Dawley), rat, in vivo, iv, 157 in plasma, IV 1.5 mg/kg, Mean
[2] = female, SD (Sprague-Dawley), rat, in vivo, iv, 157 in plasma, IV 1.5 mg/kg, rat 1
[3] = female, SD (Sprague-Dawley), rat, in vivo, iv, 157 in plasma, IV 1.5 mg/kg, rat 2
[4] = female, SD (Sprague-Dawley), rat, in vivo, po, 157 in plasma, PO 1.5 mg/kg, Mean
[5] = female, SD (Sprague-Dawley), rat, in vivo, po, 157 in plasma, PO 1.5 mg/kg, rat 1
[6] = female, SD, rat, in vivo, iv, iv 1.5 mg/kg, Mean, read-out: 157 brain concentration
[7] = female, SD, rat, in vivo, iv, iv 1.5 mg/kg, Mean, read-out: 157 liver concentration
[8] = female, SD, rat, in vivo, iv, iv 1.5 mg/kg, Rat 1, read-out: 157 brain concentration
[9] = female, SD, rat, in vivo, iv, iv 1.5 mg/kg, Rat 2, read-out: 157 brain concentration

With `CCCCCCCOC(=O)C1C2CCC(O2)C1C(=O)N1CCN(C)CC1` (stereo not shown) [Compound 157, 3-(4-Methylpiperazine-1-carbonyl)-7-oxa-bicyclo[2,2,1]heptane-2-carboxylic acid heptyl ester] the F (157, PO 1.5 mg/kg vs IV 1.5 mg/kg, Mean) was 6.78%, the “conversion to endothal in the plasma (statement)” value (157 administered to rats) was “converted to endothal” and the Tmax (157 in Brain, iv 1.5 mg/kg, Mean) was 15 min. It also gave a Tmax (157 in Brain, iv 1.5 mg/kg, rat 1) of 15 min, a Tmax (157 in Brain, iv 1.5 mg/kg, rat 2) of 15 min and a Tmax (157 in Liver, iv 1.5 mg/kg, rat 1) of 15 min. The Tmax (157 in Liver, iv 1.5 mg/kg, rat 2) was 15 min, the Tmax (157 in plasma, IV 1.5 mg/kg, Mean) was 15 min and the Tmax (157 in plasma, IV 1.5 mg/kg, rat 2) was 15 min. The Tmax (157 in plasma, PO 1.5 mg/kg, rat 1) was 30 min, the “AUClast of 157 in brain” value (157 iv 1.5 mg/kg) was 24.6 ng·h/g and the “AUClast of 157 in liver” value (157 iv 1.5 mg/kg) was 152 ng·h/g. For the same compound, the “oral availability of 157 (statement)” value (157 po 1.5 mg/kg) was “poorly orally available”, the Tmax (female, SD (Sprague-Dawley), in vivo, 157 in plasma, IV 1.5 mg/kg, rat 1, read-out: Tmax) was 15 min and the AUC(0-inf) [1] was 47.2 ng·h/mL. It also gave an AUC [1] of 47.2 ng·h/mL, a Cmax (female, SD (Sprague-Dawley), rat, in vivo, iv, 157 in plasma, IV 1.5 mg/kg, Mean, read-out: Cmax) of 115 ng/mL and an MRT last [1] of 20.5 min. It also gave a half-life (female, SD (Sprague-Dawley), rat, in vivo, iv, 157 in plasma, IV 1.5 mg/kg, Mean, read-out: T1/2 (converted)) of 23.5 min, an AUC(0-inf) [2] of 47.1 ng·h/mL and an AUC [2] of 47.1 ng·h/mL. For the same compound, the Cmax (female, SD (Sprague-Dawley), rat, in vivo, iv, 157 in plasma, IV 1.5 mg/kg, rat 1, read-out: Cmax) was 116 ng/mL, the MRT last [2] was 20 min and the half-life (female, SD (Sprague-Dawley), rat, in vivo, iv, 157 in plasma, IV 1.5 mg/kg, rat 1, read-out: T1/2 (converted)) was 24.5 min. It also gave an AUC(0-inf) [3] of 47.3 ng·h/mL, an AUC [3] of 47.3 ng·h/mL and a Cmax (female, SD (Sprague-Dawley), rat, in vivo, iv, 157 in plasma, IV 1.5 mg/kg, rat 2, read-out: Cmax) of 114 ng/mL. The MRT last [3] was 20.9 min, the half-life (female, SD (Sprague-Dawley), rat, in vivo, iv, 157 in plasma, IV 1.5 mg/kg, rat 2, read-out: T1/2 (converted)) was 22.4 min and the AUC(0-inf) [4] was 3.2 ng·h/mL. It also gave an AUC [4] of 3.2 ng·h/mL, a Cmax (female, SD (Sprague-Dawley), rat, in vivo, po, 157 in plasma, PO 1.5 mg/kg, Mean, read-out: Cmax) of 6.14 ng/mL and an MRT last [4] of 56.8 min. The half-life (female, SD (Sprague-Dawley), rat, in vivo, po, 157 in plasma, PO 1.5 mg/kg, Mean, read-out: T1/2 (converted)) was 24.2 min, the AUC(0-inf) [5] was 3.4 ng·h/mL and the AUC [5] was 3.4 ng·h/mL. For the same compound, the Cmax (female, SD (Sprague-Dawley), rat, in vivo, po, 157 in plasma, PO 1.5 mg/kg, rat 1, read-out: Cmax) was 5.92 ng/mL, the MRT last [5] was 59.3 min and the half-life (female, SD (Sprague-Dawley), rat, in vivo, po, 157 in plasma, PO 1.5 mg/kg, rat 1, read-out: T1/2 (converted)) was 26.2 min. For the same compound, the Tmax (female, SD (Sprague-Dawley), rat, in vivo, 157 in plasma, PO 1.5 mg/kg, Mean, read-out: Tmax) was 30 min, the half-life (female, SD, rat, in vivo, iv, 157 iv 1.5 mg/kg, read-out: T1/2 of 157 in brain (converted)) was 9.72 min and the half-life (female, SD, rat, in vivo, iv, 157 iv 1.5 mg/kg, read-out: T1/2 of 157 in liver (converted)) was 48.8 min. The half-life (female, SD, rat, in vivo, iv, 157 iv 1.5 mg/kg, read-out: T1/2 of 157 in plasma (converted)) was 23.5 min, the Cmax (female, SD, rat, in vivo, iv, 157 iv 1.5 mg/kg, read-out: mean Cmax of 157 in brain) was 60 ng/g and the Cmax (female, SD, rat, in vivo, iv, 157 iv 1.5 mg/kg, read-out: mean Cmax of 157 in liver) was 297 ng/g. For the same compound, the Cmax (female, SD, rat, in vivo, iv, 157 iv 1.5 mg/kg, read-out: mean Cmax of 157 in plasma) was 115 ng/mL, the concentration at 0.25 h [6] was 60 ng/g and the concentration at 0.25 h [7] was 297 ng/g. The concentration at 0.25 h [8] was 60 ng/g, the concentration at 0.25 h [9] was 60 ng/g and the concentration at 1 h [6] was 2.4 ng/g. For the same compound, the concentration at 1 h [7] was 23.5 ng/g, the concentration at 1 h [8] was 1.99 ng/g and the concentration at 1 h (female, SD, rat, in vivo, iv, iv 1.5 mg/kg, Rat 1, read-out: 157 liver concentration) was 29.4 ng/g. It also gave a concentration at 1 h [9] of 2.8 ng/g.
